Each structure is given as a SMILES string. Where “and” joins values, the source holds several entries; their conditions need not be identical. Equal values may be shown once.

In experiment [1] the test system is AeSCP-2 gene expression. The experiment can be described thus: In vitro tissue culture of 4th instar gut and carcass with 20E; dot blotting and western blotting. It is filed as cell-based, Aedes aegypti. The procedure:
To investigate whether ecdysteroids affect AeSCP-2 expression, 12 hour-old 4th instars were dissected to separate the head, gut, and carcass. Gut and carcass were cultured in the same dish with and without 20E (60 ng/ml) for 6 hours. […] As expected, at the protein level AeSCP-2 increased in 20E-treated gut tissue cultures (FIG. 7A, inset, lane 5).
Northern and dot blotting analysis—Fifteen to twenty microgram of total RNA from indicated stages was used in Northern blotting analysis as described (Ausubel et al., 1993). After electrophoresis, RNAs in the formaldehyde-agarose gel was blotted onto positively charged Nylon membrane (Millipore, Bedford, Mass.). For dot blotting analysis, 5 ug of total RNA from three parallel samples (10 larvae per sample) of each developmental time point were blotted on to positively charged Nylon membrane as described (Millipore). The membranes were baked at 80° C. under vacuum for 1 hour and UV cross-linked (Stratagene Cloning system, La Jolla, Calif.).
Western blotting analysis—Intact animals, dissected tissues and cultured tissues were homogenized in lysis buffer (0.25M TRIS®HCl (hydroxymethyl aminomethane hydrochloride), pH 8.0/0.2% TRITON®X-100 (octyl phenol ethoxylate) 1 mM dithioerythritol/5 mM EDTA/10 mM β-mercaptoethanol/1 mM phenylmethylsulfonyl fluoride/protease inhibitor cocktail (Sigma)), and centrifuged at 12000×g at 4° C. for 15 minutes. Supernatants containing solvable proteins were stored at −80° C. Protein concentrations were determined using a BCA kit (Pierce, Rockford, Ill.). […]
In vitro tissue culture—Staged 4th instars were dissected in insect saline (Riddiford et al., 1979) to obtain gut and carcass for in vitro tissue culture study. […] Pure 20-hydroxyecdysone (Sigma) was dissolved in 95% ethanol, and the concentration was determined by UV spectrum absorption analysis at 243 nm wavelength (20E mg/ml=(OD 243×480)/ε and the ε=12,670). […] Total RNA was extracted from cultured tissues and analyzed by Dot blotting. […] Soluble proteins were extracted from cultured tissues and analyzed by western blotting.

Experiment [2] concerns the target recombinant AeSCP-2 (Aedes aegypti, UniProt Q86PR3). The experiment can be described thus: Radiolabeled cholesterol binding assay (Lipidex-1000), Scatchard plot. Particulars: [3H]cholesterol, rAeSCP-2 8 pM per assay, 4° C. overnight, N=6. The source says: Whether AeSCP-2 binds cholesterol with high affinity was examined using radiolabeled cholesterol and recombinant AeSCP-2 (rAeSCP-2). Lipidex-1000 has been used for studying lipid/sterol binding proteins over decades and is proven to be a reliable assay (Glatz and Veerkamp, 1983; Colles et al., 1995). The recombinant protein was purified as GST-tagged fusion protein (FIG. 5, lanes 2 and 5) on the GST affinity column and the GST-tag was removed using Thrombin (FIG. 5, lane 4). After 16-hour Thrombin digest, there was still considerable amount of uncut fusion proteins (FIG. 5, lane 5) that may be resulted from insufficient concentration of Thrombin in the column (400 units/10 ml column). Further digest with increased level of Thrombin did completely remove the GST tag (data not shown). To optimize the condition for binding assay, varied concentrations of rAeSCP-2 was tested with 0.07 to 0.1 pM of radiolabeled cholesterol per assay. […]
Radiolabeled cholesterol binding assay—The binding of radiolabeled cholesterol to AeSCP-2 was measured based on the Lipidex-1000 assay (Glatz and Veerkamp, 1983) optimized for AeSCP-2. […]
Standard cholesterol solution was made from pure cholesterol (Sigma) in 95% ethanol at concentrations 0.04 nM to 20 uM. […] The slope=−Ka and Kd was calculated as […].

Experiment [3] addresses SCP-2. Particulars: vertebrate SCP-2, Gallegos et al., 2001; read-out: Kd values of SCP-2 cholesterol-binding; cited from earlier work.

Consider `CC(C)(O)CC[C@@H](O)[C@](C)(O)[C@H]1CC[C@@]2(O)C3=CC(=O)[C@@H]4C[C@@H](O)[C@@H](O)C[C@]4(C)[C@H]3CC[C@]12C` [20E, 20-hydroxyecdysone], for which, in experiment [1] (20E 60 ng/ml, 6 hours, carcass of 12 hour-old 4th instars), the “increase of AeSCP-2 mRNA level in cultured carcass” value is given as “not in the carcass”. Further, the “increase of AeSCP-2 mRNA level in cultured gut” value in experiment [1] (20E 60 ng/ml, 6 hours, gut of 12 hour-old 4th instars) is given as 2 fold. Further, in experiment [1] (20E-treated gut, western blot, FIG. 7 inset lane 5), the “AeSCP-2 protein level in gut tissue cultures” value is “increased”.
Take `CC(C)CCC[C@@H](C)[C@H]1CC[C@H]2[C@@H]3CC=C4C[C@@H](O)CC[C@]4(C)[C@H]3CC[C@]12C` [cholesterol]: the Kd in experiment [2] is 5.5 nM and 5.6 nM; in experiment [3] it was 4 to 2600 nM.

A word on the Kd: it is the concentration at which binding is half-saturated.

The values above are taken from patent publication US7150972B2, “Sterol carrier protein-2 from the mosquito, Aedes aegypti” (Wisconsin Alumni Research Foundation, priority 2003, dated 2006).
